Experimental data: patent publication US4225526A, “8-[(4-Aminophenyl)sulfonyl]amino-2-naphthalenyl phosphorodiamidate” (Morton-Norwich Products, Inc., priority 1979, dated 1980)

Target: T1, urease of intact Proteus mirabilis cells (Proteus mirabilis, UniProt P17086)
T1 construct: using intact Proteus mirabilis cells as the source of urease; endogenous in cells; host or cells: intact Proteus mirabilis cells
Assay: anti-urease potency using intact Proteus mirabilis cells
Format: cell-based
Settings: 40 minutes preincubation, pH 8.0; ammonia formed in five minutes after addition of urea; read-out: concentration evincing 50% inhibition of the urease of intact Proteus mirabilis cells
Description: The anti-urease potency of the compound of this invention was determined using intact Proteus mirabilis cells as the source of urease. Compounds were preincubated with Proteus mirabilis cells suspended in a saline solution (0.1 molar) buffered with 0.1 molar tris(hydroxymethyl)aminomethane (pH 8.0). After 40 minutes preincubation, the remaining urease activity was determined by collecting the ammonia formed in five minutes after the addition of the substrate, urea. Ammonia assays were carried out according to the procedure of Seligson and Seligson [J. Lab. Clin. Med. 38, 324-330 (1951)]. Percent inhibition was calculated by comparing the amount of ammonia generated by cells preincubated with 8-[(4-aminophenyl)sulfonyl]amino-2-naphthalenyl phosphorodiamidate with the controls in which preincubation was carried out in the absence of compound.

T1 sequence (P17088 whole entry): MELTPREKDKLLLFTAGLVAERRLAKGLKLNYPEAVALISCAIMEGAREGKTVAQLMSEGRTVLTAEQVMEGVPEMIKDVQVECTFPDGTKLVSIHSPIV
T1 sequence (P17087 whole entry, further chain): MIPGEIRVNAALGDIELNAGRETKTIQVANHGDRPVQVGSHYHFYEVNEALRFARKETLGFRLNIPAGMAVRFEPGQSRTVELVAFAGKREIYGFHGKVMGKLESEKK
T1 sequence (P17086 whole entry): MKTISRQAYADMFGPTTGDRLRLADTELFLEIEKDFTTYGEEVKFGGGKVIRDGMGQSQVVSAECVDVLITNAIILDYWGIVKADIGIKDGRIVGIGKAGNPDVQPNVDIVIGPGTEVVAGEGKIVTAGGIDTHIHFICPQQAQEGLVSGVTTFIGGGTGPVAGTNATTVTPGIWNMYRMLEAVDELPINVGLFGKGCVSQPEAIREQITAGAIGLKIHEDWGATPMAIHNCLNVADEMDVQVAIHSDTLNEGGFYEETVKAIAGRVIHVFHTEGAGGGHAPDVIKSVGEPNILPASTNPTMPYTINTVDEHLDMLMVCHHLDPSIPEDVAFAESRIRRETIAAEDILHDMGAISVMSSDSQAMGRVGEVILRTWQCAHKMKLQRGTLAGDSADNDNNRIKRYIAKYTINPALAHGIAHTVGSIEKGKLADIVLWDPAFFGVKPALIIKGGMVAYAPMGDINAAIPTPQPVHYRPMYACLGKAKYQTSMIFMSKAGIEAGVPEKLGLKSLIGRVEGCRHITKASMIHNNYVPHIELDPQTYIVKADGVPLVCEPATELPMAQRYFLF

**Q.** For `Nc1ccc(S(=O)(=O)Nc2cccc3ccc(OP(N)(N)=O)cc23)cc1` [this compound, 8-[(4-aminophenyl)sulfonyl]amino-2-naphthalenyl phosphorodiamidate], which IC50 is on record?
**A.** The IC50 was 400 nM.
